Laboratory results as given in patent US20260216121A1, “3AH-CYCLOPENTA[B]BENZOFURAN-3A-YL AS RAS INHIBITORS” (SJP BIOTEC GMBH, priority 2023, published 2026).
Where two headings read alike, the source gives them in different places.

Legend:
HCT-116 = assay: MTT assay for cell viability, HCT-116; format: cell-based; conditions: Homo sapiens, 48 h, mean from 3 independent experiments
Description: (§1) Cells with RAS mutations were treated with compounds 1 and C-1 for 48 h and cell viability was evaluated by MTT assay. The results shown are mean from 3 independent experiments.
(§2) HCT-116 were authenticated by Eurofin genomics and cultured in DMEM (10% heat inactivated FBS). sNF96.2 were purchased from ATCC and cultured in DMEM (10% heat inactivated FBS+1 mM Na Pyruvate). ASPC-1 cells were purchased from DSMZ and cultured in RPMI-1640 (10% heat inactivated FBS). NCI-H358 were purchased from ATCC and cultured in RPMI-1640 (10% heat inactivated FBS). T24 and HCT-116 cells were cultured in Mccoy's 5A medium (10% heat inactivated FBS). HT-1080 cells were cultured in EMEM (10% heat inactivated FBS+1 mM Na Pyruvate).
(§3) Cancer cells were seeded in 96 well plates (5×10^3 cells/well) in 80 μl in growth medium and cultured for 1 day in the incubator. Next day, 20 μl of compounds containing growth medium was added to each well and the cells were cultured for 48 h. After incubation with compounds, 10 μl of MTT solution was added to the wells and incubated for 2-4 hours. After incubation with MTT, solubilization buffer was added and incubated over night. MTT was measured at O.D. 570 nm with a plate reader (Tecan). IC50 calculations by non-linear regression were conducted with GraphPad Prism 9.

H358 = assay: MTT assay for cell viability, H358; format: cell-based; conditions: Homo sapiens, NCI-H358, 48 h, mean from 3 independent experiments
Description: as §1, §2, §3

sNF96.2 = assay: MTT assay for cell viability, sNF96.2; format: cell-based; conditions: 48 h, mean from 3 independent experiments
Description: as §1, §2, §3

T24 = assay: MTT assay for cell viability, T24; format: cell-based; conditions: Homo sapiens, T-24, 48 h, mean from 3 independent experiments
Description: as §1, §2, §3

ASPC1 = assay: MTT assay for cell viability, ASPC1; format: cell-based; conditions: Homo sapiens, 48 h, mean from 3 independent experiments
Description: as §1, §2, §3

HT-1080 = assay: MTT assay for cell viability, HT-1080; format: cell-based; conditions: Homo sapiens, 48 h, mean from 3 independent experiments
Description: as §1, §2, §3

KRAS G12V = target: T1, KRAS G12V (Homo sapiens, UniProt P01116, G12V); assay: NanoBiT assay for RAS GTP-loading (LgBit-KRAS G12V / SmBit-CRAF-RBD) in HeLa cells; format: cell-based
T1 construct: expressed in transfected cells; host or cells: HeLa
T1 sequence (P01116 1-186 isoform P01116-2 G12V limits assumed): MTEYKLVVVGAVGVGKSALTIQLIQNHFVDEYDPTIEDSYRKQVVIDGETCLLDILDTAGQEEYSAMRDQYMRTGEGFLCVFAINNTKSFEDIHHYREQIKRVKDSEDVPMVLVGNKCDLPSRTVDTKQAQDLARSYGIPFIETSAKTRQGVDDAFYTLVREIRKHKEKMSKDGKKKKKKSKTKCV
Description: (§4) NanoBiT assay for the RAS GTP-loading was performed in HeLa cells transfected with LgBit-K, N and HRAS G12V and SmBit-CRAF-RBD. Cells were treated with compounds 1 or C-1 for 2 h in serum-free DMEM (Dulbecco's modified Eagle's Medium). After incubation, the substrate for NanoLuc was added, and the luminescence was measured using a multiplate reader. Data were normalized to cells transfected with the indicated mutant and exposed to DMSO for 2 h. DMSO-treated cells were set as 1. The results shown are mean from 3 independent experiments.
(§5) HeLa cells were harvested with 0.05% Trypsin/0.02% EDTA in PBS and seeded in 6 well or 12 well cell culture plates at the concentration of 5×10^4 cells in complete DMEM (2 ml for 6 well plate and 1 ml for 12 well plate). After 1 day from seeding, the DNA were transfected with Flag tagged Ras or NanoBiT plasmid using PEI/PBS solution.
(§6) The plasmids were transfected to HeLa cells and the cells were harvested after 1 day of transfection. The cells were seeded to 96 well white plate. Next day, the medium was changed to serum free DMEM for 2 h with compounds. After incubation, Nano Glo assay was performed. The luminescence was measured using Tecan SPARKS (Tecan). IC50 calculations by non-linear regression were conducted with GraphPad Prism 9.

NRAS G12V = target: T2, NRAS G12V (Homo sapiens, UniProt P01111, G12V); assay: NanoBiT assay for RAS GTP-loading (LgBit-NRAS G12V / SmBit-CRAF-RBD) in HeLa cells; format: cell-based
T2 construct: expressed in transfected cells; host or cells: HeLa
T2 sequence (P01111 1-186 G12V limits assumed): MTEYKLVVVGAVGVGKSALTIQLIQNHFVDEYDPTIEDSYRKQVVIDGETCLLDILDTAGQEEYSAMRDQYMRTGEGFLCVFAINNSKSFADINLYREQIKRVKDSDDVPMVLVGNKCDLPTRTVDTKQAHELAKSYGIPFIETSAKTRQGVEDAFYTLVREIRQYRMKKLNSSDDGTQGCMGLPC
Description: as §4, §5, §6

HRAS G12V = target: T3, HRAS G12V (Homo sapiens, UniProt P01112, G12V); assay: NanoBiT assay for RAS GTP-loading (LgBit-HRAS G12V / SmBit-CRAF-RBD) in HeLa cells; format: cell-based
T3 construct: expressed in transfected cells; host or cells: HeLa
T3 sequence (P01112 1-186 G12V limits assumed): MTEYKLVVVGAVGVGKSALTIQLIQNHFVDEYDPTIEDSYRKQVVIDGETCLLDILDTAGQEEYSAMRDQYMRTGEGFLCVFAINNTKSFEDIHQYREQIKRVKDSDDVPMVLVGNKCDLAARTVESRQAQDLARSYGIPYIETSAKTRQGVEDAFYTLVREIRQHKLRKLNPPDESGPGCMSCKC
Description: as §4, §5, §6

iv (intravenous) PK = format: in vivo; conditions: for AUCinf(h*nM) Free / C average (nM) free / Cmax (nM), Free / AUC(0-inf) / Cmax / half-life: 2 mg/kg; for AUCinf(h*nM) Free / C average (nM) free / Cmax (nM), Free / half-life: i.v.; for Unbound clearance: Table 4, other values of the table equal the 2 mg/kg i.v. data; for AUC(0-inf) / Cmax / half-life: in vivo, iv; for half-life: read-out: T½ (converted)
Source text: (§7) After administration, a certain amount of drug is in the blood or plasma. Of the total amount in the blood or plasma, some is bound to proteins (or other species in the blood or plasma). Only unbound drug is available e.g., for drug-target interactions. Therefore, the higher the unbound fraction that is available in the blood or plasma, the more is available for binding the drug to a target. The less unbound drug is available in the blood or plasma e.g., because it is involved in competitive binding to, for example, albumin, the less is available for desired drug-target interaction. The protocol for determining the unbound fraction and pharmacokinetics is routine practice and known to the skilled person.

oral PK = format: in vivo; conditions: for AUC(0-inf) / Cmax / average free concentration at 24 h / half-life: in vivo; for average free concentration at 24 h: read-out: C average (nM) free; for half-life: read-out: T½ (converted)
Source text: as §7

[1] = Unbound fraction in human plasma (equilibrium dialysis); format: in vitro ADME; conditions: pH 7.4, dialysis 4 hours at 37 °C
Source text: as §7
HT-Dialysis plates (Model HTD 96 b, Cat #1006) and the dialysis membrane (molecular weight cut off 12-14 KDa, Cat #1101) were purchased from HT Dialysis LLC (Gales Ferry, CT).
Dialysis Buffer (100 mM sodium phosphate and 150 mM NaCl, pH 7.4±0.1)
Stop Solution (Acetonitrile containing tolbutamide at 200 ng/mL, labetalol at 200 ng/mL)
On the day of experiment, the plasma was thawed under running cold tap water and centrifuged at 3220×g for 5 min to remove any clots. The pH value was checked and recorded. […]
The dialysis membrane was pretreated according to the manufacturer's instructions: the dialysis membrane strips were soaked in ultra-pure water at room temperature for approximately 1 hr. Afterwards, each membrane strip that contains 2 membranes was separated and soaked in ethanol:water (20:80 v:v) for approximately 20 min, after which it was ready for use or was stored in the solution at 2-8° C. for up to 1 month. […]
The % Unbound, % Bound and % Recovery were calculated using the following equations:
[formula] […] [formula] • F=Free compound concentration as determined by the calculated concentration on the buffer side of the membrane • T=Total compound concentration as determined by the calculated concentration on the matrix side of the membrane • T0=Total compound concentration as determined by the calculated concentration in matrix before dialysis

[2] = IC50 (nM, KRAS G12V), as listed in the PK tables 1-4, assay not named

Compound	IC50 (HCT-116)	IC50 (H358)	IC50 (sNF96.2)	IC50 (T24)	IC50 (ASPC1)	IC50 (HT-1080)	IC50 (KRAS G12V; [2])	AUCinf(h*nM) Free (iv (intravenous) PK)	C average (nM) free (iv (intravenous) PK)	Cmax (nM), Free (iv (intravenous) PK)	Unbound clearance (iv (intravenous) PK)	AUC(0-inf) (iv (intravenous) PK)	Cmax (iv (intravenous) PK)	half-life (iv (intravenous) PK)	AUCinf(h*nM) Free (oral PK; 50 mg/kg)	Cmax (nM), Free (oral PK; 50 mg/kg)	AUC(0-inf) (oral PK; 50 mg/kg)	Cmax (oral PK; 50 mg/kg)	average free concentration at 24 h (oral PK; 50 mg/kg)	fraction unbound at 4 h, 2 µM [1]	further results
COc1cc(OC)c2c(c1)O[C@@]1(c3ccc(C#N)cc3)[C@H](c3cccc(F)c3)C[C@@H](O)[C@@]21O (single isomer, unassigned) [Compound 1]	8.99 nM	15.6 nM	3.69 nM	13.2 nM	11.9 nM	5.39 nM	8.5 nM	19.8 nM·h	0.8 nM	30.4 nM	221 L/h/kg	0.8 µM·h	1200 nM	0.9 h	378.6 nM·h	105.3 nM	14.6 µM·h	4100 nM	15.8 nM	0.026	IC50 (KRAS G12V; IC50 (nM) KRAS G12V, NanoBiT, HeLa cells, 2 h in serum-free DMEM): 16.5 nM; IC50 (NRAS G12V): 20.2 nM; IC50 (HRAS G12V): 13.6 nM; half-life (oral PK; 50 mg/kg): 3.5 h
COc1cc(OC)c2c(c1)O[C@@]1(c3ccc(C#N)cc3)[C@H](c3ccccc3)C[C@@H](O)[C@@]21O (single isomer, unassigned) [Compound 2]	–	–	–	–	–	–	5.4 nM	51.8 nM·h	2.2 nM	43.7 nM	94.854 L/h/kg	2.1 µM·h	1700 nM	4 h	–	–	–	–	–	0.025	AUCinf(h*nM) Free (oral PK; 10 mg/kg): 26.6 nM·h; Cmax (nM), Free (oral PK; 10 mg/kg): 21.4 nM; AUC(0-inf) (oral PK; 10 mg/kg): 1.1 µM·h; Cmax (oral PK; 10 mg/kg): 900 nM; average free concentration at 24 h (oral PK; 10 mg/kg): 1.1 nM; half-life (oral PK; 10 mg/kg): 1.3 h
COc1cc(OC)c2c(c1)O[C@@]1(c3ccc(Cl)cc3)[C@H](c3ccccc3)C[C@@H](O)[C@@]21O [Compound C-1, (1R,3S,3aR,8bS)-3a-(4-chlorophenyl)-6,8-dimethoxy-3-phenyl-1,2,3,3a-tetrahydro-8bH-cyclopenta[b]benzofuran-1,8b-diol, reference compound]	21.9 nM	40 nM	7.22 nM	28.5 nM	26.6 nM	18 nM	–	7.9 nM·h	0.3 nM	14.5 nM	581.38 L/h/kg	0.9 µM·h	1700 nM	1.3 h	109.8 nM·h	34.3 nM	12.6 µM·h	3900 nM	4.6 nM	0.009	IC50 (KRAS G12V; NanoBiT, HeLa cells, 2 h in serum-free DMEM, read-out: IC50 (nM) KRAS G12V): 56.6 nM; IC50 (KRAS G12V; as listed in the PK tables 1-4, assay not named, read-out: IC50 (nM, KRAS G12V)): 29 nM; IC50 (NRAS G12V; NanoBiT, HeLa cells, 2 h in serum-free DMEM, read-out: IC50 (nM) NRAS G12V): 61.4 nM; IC50 (HRAS G12V; NanoBiT, HeLa cells, 2 h in serum-free DMEM, read-out: IC50 (nM) HRAS G12V): 53.5 nM; AUCinf(h*nM) Free (oral PK; 10 mg/kg): 4.9 nM·h; Cmax (nM), Free (oral PK; 10 mg/kg): 2.3 nM; AUC(0-inf) (oral PK; 10 mg/kg): 0.6 µM·h; Cmax (oral PK; 10 mg/kg): 300 nM; average free concentration at 24 h (oral PK; 10 mg/kg): 0.2 nM; half-life (oral PK; 10 mg/kg): 1.7 h; half-life (oral PK; 50 mg/kg): 2.7 h
